Data set [1] can be described thus: Selectivity index, ratio of TC50 for human HepG2(2.2.15) cells to IC50 for decrease in HBV viral DNA replication in human HepG2(2.2.15) cells.
Data set [2] relates to Hepatitis B virus. In words: Decrease in hepatitis B viral surface antigen HBeAg secretion in human HepG2(2.2.15) cells at 0.75 to 3 uM after 72 hrs by EIA analysis. It is filed as functional, organism-based. The settings on record: HepG2 2.2.15, 72 h.
Data set [3] is described as follows: Selectivity index, ratio of TC50 for human HepG2(2.2.15) cells to IC50 for decrease in hepatitis B viral surface antigen HBeAg secretion in human HepG2(2.2.15) cells.
Data set [4] can be described thus: Selectivity index, ratio of TC50 for human HepG2(2.2.15) cells to IC50 for decrease in hepatitis B viral surface antigen HBsAg secretion in human HepG2(2.2.15) cells.
Data set [5] can be described thus: Cytotoxicity against human HepG2(2.2.15) cells assessed as decrease in cell viability after 72 hrs by MTS assay. The following applies: read-out: TC50. It is filed as cell-based. On the technique in general: Tetrazolium assays rely on reduction of a dye to a coloured formazan, in cell work by metabolically active cells.
For data set [6], the system named is Hepatitis B virus. The data set can be described thus: Decrease in HBV viral DNA replication in human HepG2(2.2.15) cells at 0.75 to 3 uM after 72 hrs by real-time PCR analysis. In kind it is functional, organism-based. The settings on record: HepG2 2.2.15, 72 h. (In general: Quantitative PCR measures a nucleic acid by following its amplification.)
Data set [7] deals with Hepatitis B virus. In words: Decrease in hepatitis B viral surface antigen HBsAg secretion in human HepG2(2.2.15) cells at 0.75 to 3 uM after 72 hrs by EIA analysis. It is filed as functional, organism-based. The following applies: HepG2 2.2.15, 72 h.
Data set [8] deals with Hepatitis B virus. The data set can be described thus: Decrease in level of HBV 3.5-kb precore/pregenomic and 2.4-/2.1-kb surface antigen RNA in human HepG2(2.2.15) cells after 48 hrs by Northern blot analysis. It is filed as functional, organism-based.
The nature of data set [9]: Effect on cell cycle of human HepG2(2.2.15) cells assessed as cells at G2M phase at 0.75 to 3 uM after 72 hrs by propidium iodide staining based flow cytometry. In kind it is ADME. The settings on record: hepg2 2.2.15, 72 h. For orientation: In flow cytometry, cells or beads pass a laser one at a time.
Data set [10] is described as follows: Effect on cellular morphology of human HepG2(2.2.15) cells at 0.75 to 3 uM after 72 hrs by Giemsa staining method. It is filed as ADME, cell-based. The following applies: hepg2 2.2.15, 72 h.
A short description of data set [11]: Effect on cell cycle of human HepG2(2.2.15) cells assessed as cells at G1 phase at 0.75 to 3 uM after 72 hrs by propidium iodide staining based flow cytometry. It is filed as ADME. The settings on record: hepg2 2.2.15, 72 h.

Ten compounds from ChEMBL document CHEMBL3397002, “Design, synthesis, and bioevaluation of paeonol derivatives as potential anti-HBV agents” (Eur J Med Chem, 2015) can be followed below.

On to `COc1ccc(C(C)=O)c(OS(=O)(=O)c2ccc(Br)cc2)c1`, for which the “Selectivity Index” value in data set [1] turned out to be 22.91; in data set [3], 5.42; in data set [4], 4.99. In addition, the IC50 in the data set with Hepatitis B virus [2] was 1.86 µM; with Hepatitis B virus [6], 0.44 µM; in the data set with Hepatitis B virus [7] it was 2.01 µM. Also, the CC50 at 72 h in [5] stood at 10.1 µM.
As to `COc1ccc(C(C)=O)c(OS(=O)(=O)c2ccc(Cl)cc2)c1`, the “Selectivity Index” value worked out at 24.16 in [1], 3.28 in data set [3] and 4.87 in data set [4]. The IC50 in the data set on Hepatitis B virus [2] came to 4.2 µM; in the data set on Hepatitis B virus [6], 0.57 µM; in the data set with Hepatitis B virus [7], 2.83 µM. Further, the CC50 at 72 h in data set [5] amounted to 13.8 µM.
With `COc1ccc(C(C)=O)c(OS(=O)(=O)c2ccccc2)c1`, the “Selectivity Index” value in data set [1] is listed as 29.77; in [3] it was 3.36; in [4] it was 7.58. For the same compound, the IC50 was 16.5 µM in the data set with Hepatitis B virus [2], 1.86 µM in the data set on Hepatitis B virus [6] and 7.3 µM in the data set on Hepatitis B virus [7]. Moreover, the CC50 at 72 h in data set [5] was 55.4 µM.
Consider `COc1ccc(C(C)=O)c(OS(=O)(=O)c2ccc(N)cc2)c1`, for which the IC50 in the data set with Hepatitis B virus [2] turned out to be 72.5 µM; in the data set on Hepatitis B virus [7], 21.7 µM. The results for the “Selectivity Index” value in data set [3] and in [4] were 0.95 and 3.17, respectively. The CC50 at 72 h in data set [5] stood at 68.8 µM.
For `COc1ccc(C(C)=O)c(OS(=O)(=O)c2ccc(F)cc2)c1`, the “Selectivity Index” value in [1] was 19.82; in data set [3] it was 4.81; in [4] it was 10.64. Moreover, the IC50 in the data set on Hepatitis B virus [2] is 11.2 µM; with Hepatitis B virus [6], 2.71 µM; in the data set on Hepatitis B virus [7], 5.05 µM. The CC50 at 72 h in data set [5] came out at 53.7 µM.
Consider `COc1ccc(C(C)=O)c(OS(=O)(=O)c2ccc(C)cc2)c1`, for which the figures for the “Selectivity Index” value in data set [1], in data set [3] and in data set [4] were 22.81, 3.47 and 7.46, respectively. The IC50 in the data set on Hepatitis B virus [2] was 6.83 µM; with Hepatitis B virus [6], 1.04 µM; in the data set on Hepatitis B virus [7], 3.18 µM. For the same compound, in data set [5], the CC50 at 72 h came out at 23.7 µM.
Take `COc1ccc(S(=O)(=O)Oc2cc(OC)ccc2C(C)=O)cc1`: the inhibition entry in the data set on Hepatitis B virus [8] was “Dose-dependent effect”. Further, the “Selectivity Index” value in data set [1] was found to be 47.75; in data set [3], 7.67; in data set [4] it was 11.09. Further, the IC50 in the data set on Hepatitis B virus [2] came out at 2.24 µM; with Hepatitis B virus [6], 0.36 µM; in the data set on Hepatitis B virus [7], 1.55 µM. Besides, the Activity result in [9], in data set [10] and in data set [11] was “Non-toxic” in each case. Also, the CC50 at 72 h in data set [5] stood at 17.2 µM.
Regarding `Nc1ccn([C@@H]2CS[C@H](CO)O2)c(=O)n1` [LAMIVUDINE], in data set [1], the “Selectivity Index” value was 46.13. The CC50 at 72 h in data set [5] was 352 µM. The compound further registered an IC50 in the data set on Hepatitis B virus [6] of 7.63 µM.
Regarding `COc1ccc(C(C)=O)c(OS(=O)(=O)c2ccc([N+](=O)[O-])cc2)c1`, the entries for the “Selectivity Index” value in data set [1], in data set [3] and in data set [4] were 9.5, 2.35 and 6.17, respectively. For the same compound, the results for the IC50 in the data set with Hepatitis B virus [2], in the data set with Hepatitis B virus [6] and in the data set with Hepatitis B virus [7] were 4.64 µM, 1.15 µM and 1.77 µM, respectively. For the same compound, in data set [5], the CC50 at 72 h turned out to be 10.9 µM.
As for `O=c1[nH]cc(F)c(=O)[nH]1` [FLUOROURACIL], in data set [5], the CC50 at 72 h was determined as 21.7 µM.

As usually defined, the IC50 is the midpoint of a concentration-inhibition curve.
